Source: patent US11312727B1, “Macrocyclic flu endonuclease inhibitors” (Janssen BioPharma, Inc., priority 2018, dated 2022)

Columns and labels:
[1] = tested on: Influenza strain A549 A/WSN/33 (H1N1); assay: microbe, parasite or virus in culture; assay type: cell-based; settings: Influenza A virus, A549, 20 h, A549 cells, influenza A/WSN/33 (H1N1), 20 hours incubation; read-out: A549_A(H1N1) EC50
in vitro = settings: human, CC50, uninfected A549 cells, CellTiter-Glo

Row | Compound | EC50 [1] [µM] | CC50 (in vitro) [µM]
1 | O=C1c2c(O)c(=O)ccn2N2CN1C[C@@H]1C[C@H]1COc1ccccc1[C@H]2c1ccccc1 (single isomer, unassigned) [Compound 80BB, (1a*R,8*R,17a*R)-14-hydroxy-8-phenyl-1a,2,17,17a-tetrahydro-1H,8H-9,16-methanobenzo[b]cyclopropa[k]pyrido[1,2-f][1]oxa[5,6,9]triazacyclotridecine-13,15-dione] | > 0.5 | > 1
2 | CC(C)[C@@H]1/C=C/COc2cc(F)c(F)c3c2[C@@H](c2ccccc2SC3)N2CN1C(=O)c1c(O)c(=O)ccn12 (single isomer, unassigned) [Compound 169AB, (9*R,17a*S,*E)-24,25-difluoro-12-hydroxy-9-isopropyl-2,6,9,17a-tetrahydro-3,4-(epiprop[1]en[1]yl[3]ylidene)-10,17-methanobenzo[6,7]thiepino[4,5-c]pyrido[1,2-f][1]oxa[5,6,9]triazacyclotridecine-11,13-dione] | > 0.05 | > 0.1
3 | O=C1c2c(O)c(=O)ccn2N2CN1C/C=C\COc1c(ccc(F)c1F)[C@H]2c1ccccc1 (single isomer, unassigned) [Compound 74A, (18*R,Z)-3,4-difluoro-12-hydroxy-18-phenyl-6,9-dihydro-18H-10,17-methanobenzo[b]pyrido[1,2-f][1]oxa[5,6,9]triazacyclotridecine-11,13-dione] | > 1 | > 2
4 | O=C1c2c(O)c(=O)ccn2N2CN1CCCCOc1ccccc1[C@H]2c1ccccc1 [Compound 8A, (18R)-12-hydroxy-18-phenyl-6,7,8,9-tetrahydro-18H-10,17-methanobenzo[b]pyrido[1,2-f][1]oxa[5,6,9]triazacyclotridecine-11,13-dione] | 0.013 | > 2
5 | CC[C@H]1/C=C/COc2c(ccc(Cl)c2Cl)[C@H](c2ccccc2)N2CN1C(=O)c1c(O)c(=O)ccn12 (single isomer, unassigned) [Compound 121BB, (9*S,18*S,*E)-3,4-dichloro-9-ethyl-12-hydroxy-18-phenyl-6,9-dihydro-18H-10,17-methanobenzo[b]pyrido[1,2-f][1]oxa[5,6,9]triazacyclotridecine-11,13-dione] | 0.06 | > 0.2
6 | C[C@@H]1/C=C/COc2c(ccc(F)c2F)[C@H](c2ccccc2)N2CN1C(=O)c1c(O)c(=O)ccn12 (single isomer, unassigned) [Compound 148BA, (9*R,18*S,*E)-3,4-difluoro-12-hydroxy-9-methyl-18-phenyl-6,9-dihydro-18H-10,17-methanobenzo[b]pyrido[1,2-f][1]oxa[5,6,9]triazacyclotridecine-11,13-dione] | 2.6 | > 10
7 | O=C1c2c(O)c(=O)ccn2N2CN1C[C@H]1C[C@@H]1COc1ccccc1[C@H]2c1ccccc1 (single isomer, unassigned) [Compound 80BA, (1a*S,8*R,17a*S)-14-hydroxy-8-phenyl-1a,2,17,17a-tetrahydro-1H,8H-9,16-methanobenzo[b]cyclopropa[k]pyrido[1,2-f][1]oxa[5,6,9]triazacyclotridecine-13,15-dione] | > 0.5 | > 1
8 | O=C1c2c(O)c(=O)ccn2N2CN1C1(/C=C/COc3cccc4c3[C@H]2c2ccccc2SC4)CCC1 (single isomer, unassigned) [Compound 147B, (17a′*S,*E)-12′-hydroxy-2′,17a′-dihydro-6′H-spiro[cyclobutane-1,9′-[3,4](epiprop[1]en[1]yl[3]ylidene)[10,17]methanobenzo[6,7]thiepino[4,5-c]pyrido[1,2-f][1]oxa[5,6,9]triazacyclotridecine]-11′,13′-dione] | 0.00033 | > 0.1
9 | CC[C@H]1/C=C/COc2c(F)cccc2[C@@H](c2ccccc2)N2CN1C(=O)c1c(O)c(=O)ccn12 (single isomer, unassigned) [Compound 85AA, (9*S,18*R,E)-9-ethyl-4-fluoro-12-hydroxy-18-phenyl-6,9-dihydro-18H-10,17-methanobenzo[b]pyrido[1,2-f][1]oxa[5,6,9]triazacyclotridecine-11,13-dione] | 0.003 | > 0.2
10 | O=C1c2c(O)c(=O)ccn2N2CN1CC/C=C/COc1cccc3c1[C@H]2c1cccc(F)c1SC3 (single isomer, unassigned) [Compound 137B, (1*S,13*E)-25-fluoro-7-hydroxy-16-oxa-23-thia-2,3,10-triazahexacyclo[15.12.1.12,10.03,8.021,30.024,29]hentriaconta-4,7,13,17,19,21(30),24(29),25,27-nonaene-6,9-dione] | 0.0053 | > 0.2
11 | O=C1c2c(O)c(=O)ccn2N2CN1C[C@H]1C[C@H]1COc1cccc3c1[C@H]2c1ccccc1SC3 (single isomer, unassigned) [Compound 118AA, (1a*R,11b*S,20a*S)-17-hydroxy-1a,2,6,11 b,17,17a,20,20a-octahydro-1H-5,4-(epiprop[1]en[1]yl[3]ylidene)-12,19-methanobenzo[6,7]thiepino[4,5-c]cyclopropa[k]pyrido[1,2-f][1]oxa[5,6,9]triazacyclotridecine-16,18-dione] | 0.0062 | > 0.2
12 | CC[C@H]1/C=C/COc2cc(F)c(F)c3c2[C@@H](c2ccccc2SC3)N2CN1C(=O)c1c(O)c(=O)ccn12 (single isomer, unassigned) [Compound 126BA, (9*S,17a*S,E)-9-ethyl-24,25-difluoro-12-hydroxy-2,6,9,17a-tetrahydro-3,4-(epiprop[1]en[1]yl[3]ylidene)-10,17-methanobenzo[6,7]thiepino[4,5-c]pyrido[1,2-f][1]oxa[5,6,9]triazacyclotridecine-11,13-dione] | 0.00023 | > 0.05
13 | O=C1c2c(O)c(=O)ccn2N2CN1C1(/C=C/COc3cc(F)c(F)c4c3[C@H]2c2ccccc2SC4)CC1 (single isomer, unassigned) [Compound 108B, (17a′*S,*E)-24′,25′-difluoro-12′-hydroxy-2′,17a′-dihydro-6′H-spiro[cyclopropane-1,9′-[3,4](epiprop[1]en[1]yl[3]ylidene)[10,17]methanobenzo[6,7]thiepino[4,5-c]pyrido[1,2-f][1]oxa[5,6,9]triazacyclotridecine]-11′,13′-dione] | 0.0002 | > 0.05
14 | O=C1c2c(O)c(=O)ccn2N2CN1CC[C@H]1C[C@H]1COc1cccc3c1[C@@H]2c1ccccc1SC3 (single isomer, unassigned) [Compound 144AB, (1*R,13*R,15*R)-7-hydroxy-17-oxa-24-thia-2,3,10-triazaheptacyclo[16.12.1.12,10.03,8.013,15.022,31.025,30]dotriaconta-4,18,20,22(31),25(30),26,28-heptaene-6,9-dione] | > 0.1 | > 0.2
15 | CC[C@@H]1/C=C/COc2c(ccc(F)c2F)[C@@H](c2ccccc2)N2CN1C(=O)c1c(O)c(=O)ccn12 [Compound 101AB, (9R,18R,E)-9-ethyl-3,4-difluoro-12-hydroxy-18-phenyl-6,9-dihydro-18H-10,17-methanobenzo[b]pyrido[1,2-f][1]oxa[5,6,9]triazacyclotridecine-11,13-dione] | 0.0013 | > 0.2
16 | C[C@H]1/C=C/COc2c(F)cccc2[C@H](c2ccccc2)N2CN1C(=O)c1c(O)c(=O)ccn12 (single isomer, unassigned) [Compound 141BB, (9*S,18*S,E)-4-fluoro-12-hydroxy-9-methyl-18-phenyl-6,9-dihydro-18H-10,17-methanobenzo[b]pyrido[1,2-f][1]oxa[5,6,9]triazacyclotridecine-11,13-dione] | 0.627 | > 20
17 | CC[C@H]1/C=C/COc2ccccc2[C@@H](c2ccccc2)N2CN1C(=O)c1c(O)c(=O)ccn12 [Compound 39BB, (9S,18R,E)-9-ethyl-12-hydroxy-18-phenyl-6,9-dihydro-18H-10,17-methanobenzo[b]pyrido[1,2-f][1]oxa[5,6,9]triazacyclotridecine-11,13-dione] | 0.007 | > 2
18 | O=C1c2c(O)c(=O)ccn2N2CN1C/C=C\CCc1cnccc1[C@H]2c1ccccc1 (single isomer, unassigned) [Compound 56A, (18*R,*Z)-12-hydroxy-18-phenyl-5,6,9,18-tetrahydro-10,17-methanodipyrido[1,2-b:3′,4′-k][1,2,5]triazacyclotridecine-11,13-dione] | > 1 | > 2
19 | CC[C@H]1/C=C/COc2ccccc2[C@H](c2ccccc2)N2CN1C(=O)c1c(O)c(=O)ccn12 [Compound 39AB, (9S,18S,E)-9-ethyl-12-hydroxy-18-phenyl-6,9-dihydro-18H-10,17-methanobenzo[b]pyrido[1,2-f][1]oxa[5,6,9]triazacyclotridecine-11,13-dione] | > 1 | > 2
20 | O=C1c2c(O)c(=O)ccn2N2CN1CC[C@@H]1C[C@@H]1COc1cccc3c1[C@@H]2c1ccccc1SC3 (single isomer, unassigned) [Compound 144AA, (1*R,13*S,15*S)-7-hydroxy-17-oxa-24-thia-2,3,10-triazaheptacyclo[16.12.1.12,10.03,8.013,15.022,31.025,30]dotriaconta-4,18,20,22(31),25(30),26,28-heptaene-6,9-dione] | > 0.1 | > 0.2
21 | O=C1c2c(O)c(=O)ccn2N2CN1C/C=C\COc1c(ccc(F)c1F)[C@@H]2c1ccccc1 (single isomer, unassigned) [Compound 74B, (18*S,Z)-3,4-difluoro-12-hydroxy-18-phenyl-6,9-dihydro-18H-10,17-methanobenzo[b]pyrido[1,2-f][1]oxa[5,6,9]triazacyclotridecine-11,13-dione] | 0.002 | > 0.2
22 | CC[C@H]1CCCOc2c(ccc(F)c2F)[C@@H](c2ccccc2)N2CN1C(=O)c1c(O)c(=O)ccn12 (single isomer, unassigned) [Compound 164A, (9*S,18*R)-9-ethyl-3,4-difluoro-12-hydroxy-18-phenyl-6,7,8,9-tetrahydro-18H-10,17-methanobenzo[b]pyrido[1,2-f][1]oxa[5,6,9]triazacyclotridecine-11,13-dione] | > 0.05 | > 0.1
